Here are results for 17 compounds from publication PMC9064011 (RSC Advances, 2019).

Some results are limits rather than exact numbers.

The subject of one data set is HeLa cells. As to the kind of experiment: MTT cell growth inhibition. It is filed as cell-based. As to conditions: Homo sapiens.
A further data set relates to MCF-7 cells. The experiment in a line: MTT assay for tumor cell growth inhibition, MCF-7. It is filed as cell-based. Particulars: Homo sapiens, MCF7, 48 h, read-out: IC50 MCF-7.
The next data set deals with L-O2 cells. The experiment in a line: MTT assay for cell growth inhibition, L-O2. Particulars: Homo sapiens, L02, 48 h, read-out: IC50 L-O2. It is filed as cell-based.
A further data set concerns HepG2 cells. As to the kind of experiment: MTT assay for tumor cell growth inhibition, HepG2. It is filed as cell-based. Particulars: Homo sapiens, HepG2, 48 h, read-out: IC50 HepG2. On the technique in general: Formazan colour is commonly taken as a measure of viable cells.
In data set [1] the test system is Hypoxia Inducible Factor-1 (HIF-1) pathway. As to the kind of experiment: cells. Particulars: Homo sapiens, HeLa, 12 h, read-out: HRE IC50.
Data set [2] relates to hypoxia inducible factor-1 (HIF-1) transcription. Particulars: dual luciferase reporter assay, previous work in our laboratory, ref unpublished; cited from earlier work. In general terms: In a reporter assay the amount or activity of a reporter protein is the signal.
The next data set concerns H322 cell. As to conditions: previous work in our laboratory, ref unpublished; cited from earlier work.
The test system of data set [3] is Hypoxia Inducible Factor-1 (HIF-1) pathway. As to conditions: dual luciferase reporter system.

As to `COc1ccc(C(O)(c2ccc(OC)cc2)c2cc(C#Cc3ccc(O)cc3)ccc2-c2ccc(O)cc2)cc1` [Compound 2h, 2′-(hydroxybis(4-methoxyphenyl)methyl)-4′-((4-hydroxyphenyl)ethynyl)-[1,1′-biphenyl]-4-ol], in the data set on HeLa cells, it took 10.8 ± 0.3 µM to inhibit growth by half (GI50). Moreover, the IC50 in the data set on MCF-7 cells was determined as 11.9 ± 0.5 µM; with L-O2 cells, 10.6 ± 1.1 µM; with HepG2 cells it was 11.8 ± 0.8 µM; in data set [1], 2.52 ± 0.4 µM.
For `COc1ccc(C2(c3ccc(OC)cc3)c3cc(O)ccc3-c3ccc(C#Cc4ccc(O)cc4)cc32)cc1` [Compound 2i, 7-((4-Hydroxyphenyl)ethynyl)-9,9-bis(4-methoxy-phenyl)-9H-fluoren-2-ol], in that order: 7.58 ± 0.1 µM, 9.23 µM, 10.9 ± 1 µM, 8.96 ± 0.4 µM and 5.55 ± 1.3 µM.
For `COc1ccc(C#Cc2ccc(-c3ccc(OC)cc3)c(C(=O)c3ccc(OC)cc3)c2)cc1` [Compound 2c, (4′-Methoxy-4-((4-methoxyphenyl)ethynyl)-[1,1′-biphenyl]-2-yl)(4-methoxyphenyl)methanone], in that order: over 100 µM, over 100 µM, over 100 µM, over 100 µM and 39.9 ± 3.1 µM.
Compound `CCCCC(O)(c1ccc(OC)cc1)c1cc(C#Cc2ccc(OC)cc2)ccc1-c1ccc(OC)cc1` (stereo not shown) [Compound 2f, 1-(4′-methoxy-4-((4-methoxyphenyl)ethynyl)-[1,1′-biphenyl]-2-yl)-1-(4-methoxyphenyl)pentan-1-ol] had a GI50 in the data set on HeLa cells of over 100 µM. Moreover, the IC50 in the data set on MCF-7 cells was over 100 µM; in the data set on L-O2 cells, over 100 µM; with HepG2 cells, over 100 µM; in data set [1], 1.89 ± 0.4 µM.
Regarding `COc1ccc(C#Cc2ccc(-c3ccc(OC)cc3)c(C(=O)O)c2)cc1` [Compound 2b, 4′-Methoxy-4-((4-methoxyphenyl)ethynyl)-[1,1′-biphenyl]-2-carboxylic acid], the GI50 in the data set with HeLa cells was over 100 µM. The IC50 was over 100 µM in the data set with MCF-7 cells, over 100 µM in the data set on L-O2 cells, over 100 µM in the data set with HepG2 cells and 15.6 ± 1.6 µM in data set [1].
Turning to `COc1ccc(-c2ccc(C#Cc3ccc(O)cc3)cc2C(O)(c2ccc(OC)cc2)c2ccc(OC)cc2)cc1` [Compound 2g, 4-((2-(Hydroxybis(4-methoxyphenyl)methyl)-4′-methoxy-[1,1′-biphenyl]-4-yl)ethynyl)phenol], the GI50 in the data set on HeLa cells came out at 15.48 ± 0.1 µM. For the same compound, the IC50 in the data set with MCF-7 cells was found to be 13 ± 0.7 µM; with L-O2 cells, 16.4 ± 1.3 µM; in the data set with HepG2 cells, 15.1 ± 0.6 µM; in data set [1] it was 8.1 ± 1.4 µM.
For `Cc1ccc(-c2ccc(O)cc2)c(C(=C2C=CC(=O)C=C2)c2ccccc2)c1C#Cc1ccc(O)cc1` [selaginellin A], the “inhibitory activity on HIF-1 transcription” value in data set [2] is on record as “displayed inhibitory activity”. The “cytotoxicity against H322 cell” value in the data set on H322 cell is given as “moderately cytotoxic”.
For `Cc1ccc(-c2ccc(O)cc2)c(C(=C2C=CC(=O)C=C2)c2ccc(O)cc2)c1C#Cc1ccc(O)cc1` [selaginellin B], the “cytotoxicity against H322 cell” value in the data set on H322 cell is recorded as “moderately cytotoxic”.
For `COc1ccc(C(=C2C=CC(=O)C=C2)c2cc(C#Cc3ccc(O)cc3)ccc2-c2ccc(O)cc2)cc1` [Compound 2j, 4-((4′-Hydroxy-4-((4-hydroxyphenyl)ethynyl)-[1,1′-biphenyl]-2-yl)(4-methoxyphenyl)methylene)cyclohexa-2,5-dien-1-one], the GI50 in the data set with HeLa cells was determined as 4.47 ± 0.5 µM. In addition, the “HIF inhibitory activity (in words)” value in data set [3] was “little HIF inhibitory activity”. The IC50 in the data set on MCF-7 cells is 12.1 ± 0.1 µM; with L-O2 cells it was 11.1 ± 0.7 µM; in the data set on HepG2 cells, 11.6 ± 0.6 µM.
The compound `COc1ccc(C(=O)c2c(C#Cc3ccc(O)cc3)cccc2-c2ccc(O)cc2)cc1` [Compound 1d, (4′-Hydroxy-3-((4-hydroxyphenyl)ethynyl)-[1,1′-biphenyl]-2-yl)(4-methoxyphenyl)methanone] displayed a GI50 in the data set on HeLa cells of 44.81 ± 0.2 µM. In addition, the IC50 in the data set with MCF-7 cells is 51.2 ± 0.6 µM; with L-O2 cells, 64 ± 1 µM; in the data set on HepG2 cells, 54.8 ± 1.9 µM; in data set [1] it was 9.52 ± 0.4 µM.
For `COC(=O)c1c(C#Cc2ccc(OC)cc2)cccc1-c1ccc(OC)cc1` [Compound 1a, Methyl 4′-methoxy-3-((4-methoxyphenyl)ethynyl)-[1,1′-biphenyl]-2-carboxylate], in that order: over 100 µM, over 100 µM, over 100 µM, over 100 µM and 5.41 ± 1.1 µM.
`O=c1oc(-c2ccc(O)cc2)cc2cccc(-c3ccc(O)cc3)c12` [Compound 1e, 3,8-Bis(4-hydroxyphenyl)-1H-isochromen-1-one] showed a GI50 in the data set on HeLa cells of 86.31 ± 0.5 µM. In addition, the IC50 in the data set on MCF-7 cells came out at 95.57 ± 0.4 µM; in the data set with L-O2 cells, 92.5 ± 2 µM; in the data set on HepG2 cells, 55.5 ± 1.9 µM; in data set [1] it was 13.7 ± 0.4 µM.
`COc1ccc(C#Cc2cccc(-c3ccc(OC)cc3)c2C(=O)O)cc1` [Compound 1b, 4′-Methoxy-3-((4-methoxyphenyl)ethynyl)-[1,1′-biphenyl]-2-carboxylic acid] came in with a GI50 with HeLa cells of over 100 µM. For the same compound, the IC50 is over 100 µM with MCF-7 cells, over 100 µM in the data set on L-O2 cells, over 100 µM in the data set on HepG2 cells and 20.7 ± 2.5 µM in data set [1].
Compound `COc1ccc(C(=O)c2cc(C#Cc3ccc(O)cc3)ccc2-c2ccc(O)cc2)cc1` [Compound 2d, (4′-Hydroxy-4-((4-hydroxyphenyl)ethynyl)-[1,1′-biphenyl]-2-yl)(4-methoxyphenyl)methanone] yielded a GI50 in the data set with HeLa cells of 3.24 ± 0.1 µM. Besides, the IC50 with MCF-7 cells stood at 6.49 ± 0.1 µM; in the data set on L-O2 cells, 7.83 ± 1.2 µM; in the data set on HepG2 cells it was 24.99 ± 0.1 µM; in data set [1], 4.47 ± 0.6 µM.
For `COc1ccc(C#Cc2ccc(-c3ccc(OC)cc3)c(C(O)(c3ccc(OC)cc3)c3ccc(OC)cc3)c2)cc1` [Compound 2e, (4′-Methoxy-4-((4-methoxyphenyl)ethynyl)-[1,1′-biphenyl]-2-yl)bis(4-methoxyphenyl)methanol], in that order: over 100 µM, over 100 µM, over 100 µM, over 100 µM and 20.8 ± 0.8 µM.
Compound `COC(=O)c1cc(C#Cc2ccc(OC)cc2)ccc1-c1ccc(OC)cc1` [Compound 2a, Methyl 4′-methoxy-4-((4-methoxyphenyl)ethynyl)-[1,1′-biphenyl]-2-carboxylate] registered a GI50 with HeLa cells of over 100 µM. For the same compound, the IC50 with MCF-7 cells was over 100 µM; in the data set with L-O2 cells, over 100 µM; with HepG2 cells it was over 100 µM; in data set [1] it was 18.3 ± 1.6 µM.
In the data set with HeLa cells, `COc1ccc(C#Cc2cccc(-c3ccc(OC)cc3)c2C(=O)c2ccc(OC)cc2)cc1` [Compound 1c, (4′-Methoxy-3-((4-methoxyphenyl)ethynyl)-[1,1′-biphenyl]-2-yl)(4-methoxyphenyl)methanone] had a GI50 of 3.75 ± 0.2 µM. Moreover, the IC50 in the data set with MCF-7 cells turned out to be 7.18 ± 1.2 µM; in data set [1] it was 2.36 ± 0.4 µM.

As usually defined, the GI50 is the concentration giving 50% growth inhibition. A word on the IC50: it is the concentration that inhibits the measured activity by half.
